Results as given in patent publication US7652071B2, “Penetration of active substances into cells and organs” (Alpha-Biocare GmbH, priority 2003, dated 2010).

System: Angiostrongylus cantonensis
Assay: Detection of worm stages in the brain of Wistar rats experimentally infected with Angiostrongylus cantonensis after oral treatment
Type: in vivo
Description: Each rat was infected with precisely 60 L3 larvae. From day 5 post-infection onwards, mebendazole was administered once daily on three successive days at the dosage rates and in the formulations stated. The worms were detected on day 21 post-infection.

Structure (SMILES): COC(=O)Nc1nc2ccc(C(=O)c3ccccc3)cc2[nH]1 [Mebendazole, mebendazole]
- Worm detection in the brain (aqueous suspension, mebendazole 10 mg/kg body weight oral, once daily on three successive days from day 5 post-infection, worms detected day 21, % of infection control (55 worms = 100%)): 98.2%
- Worm reduction in the brain (mebendazole with the aid of the carrier system, at a more than 30-fold reduced mebendazole dose): significant worm reduction in the brain
